What was measured:
Type in all cases: functional
Rattus norvegicus [1] = test: Antihyperlipidemic activity in rat assessed as reduction of tyloxapol-induced plasma low density lipoprotein cholesterol level at 150 umol/kg, ip after 24 hrs relative to control
Rattus norvegicus [2] = test: Anti-inflammatory activity in rat assessed as reduction of carrageenan-induced paw edema at 150 umol/kg, ip after 3.5 hrs relative to control
Rattus norvegicus [3] = test: Antihyperlipidemic activity in rat assessed as reduction of tyloxapol-induced plasma triglyceride level at 150 umol/kg, ip after 24 hrs relative to control
Rattus norvegicus [4] = test: Antihyperlipidemic activity in rat assessed as reduction of tyloxapol-induced plasma total cholesterol level at 150 umol/kg, ip after 24 hrs relative to control

SMILES | inhibition in vivo at 150 µmol/kg (Rattus norvegicus [1]) [%] | inhibition in vivo at 150 µmol/kg (Rattus norvegicus [2]) [%] | inhibition in vivo at 150 µmol/kg (Rattus norvegicus [3]) [%] | inhibition in vivo at 150 µmol/kg (Rattus norvegicus [4]) [%]
Cc1c(Cl)cccc1Nc1ccccc1C(=O)N1CCSCC1 | 70.5 | 45 | 80 | 65.9
COc1ccc2cc([C@H](C)C(=O)O)ccc2c1 [NAPROXEN] | – | 11 | – | –
COc1ccc2c(c1)c(CC(=O)N1CCSCC1)c(C)n2C(=O)c1ccc(Cl)cc1 | 83 | 38 | 79.5 | 73
O=C(O)Cc1ccccc1Nc1c(Cl)cccc1Cl [DICLOFENAC] | – | 37 | – | –
O=C(Cc1c[nH]c2ccccc12)N1CCSCC1 | – | 29 | – | –
COc1ccc2c(c1)c(CC(=O)O)c(C)n2C(=O)c1ccc(Cl)cc1 [INDOMETHACIN] | – | 42 | – | –
CC(C(=O)N1CCSCC1)c1cccc(C(=O)c2ccccc2)c1 (stereo unspecified) | 64.9 | 60 | 43 | 49
COc1ccc2cc(C(C)C(=O)N3CCSCC3)ccc2c1 (stereo unspecified) | 81.4 | 62 | 61.3 | 57.8
CC(C)Cc1ccc(C(C)C(=O)N2CCSCC2)cc1 (stereo unspecified) | 57.6 | 41 | 64.2 | 60.3
O=C(Cc1ccccc1Nc1c(Cl)cccc1Cl)N1CCSCC1 | 70.8 | 40 | 46.4 | 44.1
O=C(c1ccccc1Nc1cccc(C(F)(F)F)c1)N1CCSCC1 | 64.2 | 44 | 54.1 | 52.8
CC(C)Cc1ccc(C(C)C(=O)O)cc1 (stereo unspecified) [IBUPROFEN] | – | 36 | – | –
Cc1cccc(Nc2ccccc2C(=O)N2CCSCC2)c1C | 71.3 | 46 | 81.5 | 80.5
Cc1cccc(Nc2ccccc2C(=O)O)c1C [MEFENAMIC ACID] | – | 44 | – | –
Cc1c(Cl)cccc1Nc1ccccc1C(=O)O [TOLFENAMIC ACID] | – | 24 | – | –
O=C(CCCCC1CCSS1)N1CCSCC1 (stereo unspecified) | – | 59 | – | –
O=C(O)c1ccccc1Nc1cccc(C(F)(F)F)c1 [FLUFENAMIC ACID] | – | 19 | – | –

Source: ChEMBL document CHEMBL3751779, “Amides of non-steroidal anti-inflammatory drugs with thiomorpholine can yield hypolipidemic agents with improved anti-inflammatory activity” (Bioorg Med Chem Lett, 2016)
